“And” between values parts separate entries of the source, which are not always exact repeats. Equal entries are not always repeated. Where two headings read alike, the source gives them in different places.
Key:
[1] = target: T1, wild-type mouse Pgp (MDR3) (Mus musculus, UniProt P21447)
Procedure: Overexpression of wild-type mouse Pgp (MDR3) was achieved by using genetically engineered strains of Pichia pastoris with a 6X histidine tag. The cells were cultured in glycerol media, and methanol was used to induce the overexpression of Pgp at the Bioexpression and Fermentation Facility (BFF), University of Georgia, Athens, GA, USA. A repeated cycle of freezing using liquid nitrogen, blending, and thawing was used to lyse the Pgp-expressing P. pastoris cells. The protein was purified using affinity chromatography with nickel-nitrilotriacetic acid (Ni-NTA) resin (Thermo Fisher Scientific, Waltham, MA, USA). DDM was used to solubilize the protein, and the solution was concentrated using Amicon Ultra-15 100 kDa cut-off filters (EMD Millipore, Billerica, MA, USA). The concentration of purified protein was measured at 280 nm using a calculated extinction coefficient of 1.28 per mg mL^−1 on a Nanodrop (DeNovix, Wilmington, DE, USA). […] The purified DDM-solubilized Pgp was aliquoted and stored at −80 °C for future analysis.
Approximately 40 µL of DDM-solubilized Pgp was dialyzed for two hours against HEPES buffer (20 mM HEPES, 100 mM NaCl, 5 mM MgCl2, 2 mM DTT, pH 7.4) to remove any remnants of the detergent, DDM. The dialyzed protein was mixed with 4 mg mL^−1 of the extruded liposomes and incubated on ice for at least one hour to allow Pgp to integrate into the liposomes. To remove any additional detergent and further facilitate Pgp integration into the liposome, the solution was dialyzed for a second time for two hours in HEPES buffer to form proteoliposomes, and the concentration of Pgp reconstituted in liposomes was determined using the Bio-Rad DC Protein assay. Finally, the solution was aliquoted and stored at −80 °C for future use.
Acrylamide, an aqueous collisional quencher, can be used to determine the changes in conformation upon Pgp-drug interaction. The principle of this technique is that as the drug interacts with the protein, the conformation of the accessible tryptophan residues in the protein also changes, resulting in a shift in fluorescence intensity. For this experiment, to measure the fluorescence of Pgp reconstituted in liposomes, in the presence (250 µM) or absence of drug(s), the excitation and emission wavelengths used were 295 nm and 330 nm, respectively. The proteoliposomes were diluted to a final concentration of 1 µM in Chifflet buffer (pH 7.4) containing 2 mM DTT, and it was titrated against an increasing concentration of acrylamide. A concentration of 11 µM N-acetyl-L-tryptophanamide (NATA), an analog of tryptophan, was used as a positive control to determine non-specific quenching. A saturated concentration of AMPPNP (3.2 mM), a non-hydrolysable form of ATP, was used to generate an outward-open conformation of Pgp. All the experiments for acrylamide quenching were performed at 21 °C. To correct the fluorescence intensities for background, dilution, and inner filter effects, […] was used. A Stern–Volmer plot was constructed with F0(corrected)/F(corrected) versus acrylamide concentration. The slope of the curve determined the degree of quenching, and it was related to the Stern–Volmer constant (Ksv) by Equation (4), as follows:(4) Focorrected/Fcorrected=1+KsvQ where F0(corrected)/F(corrected) = Stern–Volmer plot; Ksv = Stern–Volmer constant; and [Q] = acrylamide concentration.

[2] = target: T1, wild-type mouse Pgp (MDR3); remark: listed apart in the source
Excerpt: The STDD NMR technique is a robust method used to characterize the interaction between a drug and receptor protein [36, 86]. This technique utilizes a saturated low-strength radio frequency (RF) to selectively excite the receptor protein. […] Due to the localization of Pgp, most of its substrates are lipophilic, resulting in a probable non-specific interaction between its substrates and liposomes in the observed STD NMR spectrum. Therefore, STD NMR of liposomes in the presence of drugs was performed. The resulting spectrum was subtracted from the ^1H STD NMR spectrum obtained from the drug in the presence of proteoliposome (Pgp reconstituted into liposome) to achieve a saturation transfer double-difference (STDD) NMR spectrum, which nullified the STD observations of the drugs in the presence of liposomes.
This technique was performed as previously described. […] The NMR tubes with the sample were centrifuged at 3000× g for 5 min. To suppress the background signals caused by water, a tailored gradient pulse sequence known as water suppression by gradient-tailored excitation (WATERGATE) was also included. A train of 50 ms Gaussian-shaped selective pulses was used to selectively excite and saturate Pgp for two seconds, and a relaxation delay of five seconds was also used. The STD NMR spectra for both the control and the samples were obtained through phase cycling, where the Pgp irradiation resonance was alternated between 1.5 ppm and 42 ppm on and off resonance, respectively, for 512 scans, creating the ^1H NMR spectrum.
For this experiment, the NMR studies were performed on a Bruker Avance NEO 800 MHz NMR spectrometer with a 1.7 mm TCI H{CN} probe at 25 °C. The STD NMR data generated were analyzed using iNMR software (Nucleomatic, Molfetta, Italy), Igor Pro 6.2, and Mnova 14.2.0 (Mastrelab Research S.L., Santiago de Compostela, Spain).

Pgp = settings: CLEFF9 cells, cited from earlier work
[3] = 250 µM drug, 3.2 mM AMPPNP, 21 °C
[4] = 250 µM drug, 3.2 mM AMPPNP, inferred from Ksv
[5] = 250 µM drug, absence of AMPPNP, 21 °C, apo-Pgp 2.5 ± 0.04
[6] = 250 µM drug, no AMPPNP, inferred from Ksv

T1 sequence (P21447 whole entry): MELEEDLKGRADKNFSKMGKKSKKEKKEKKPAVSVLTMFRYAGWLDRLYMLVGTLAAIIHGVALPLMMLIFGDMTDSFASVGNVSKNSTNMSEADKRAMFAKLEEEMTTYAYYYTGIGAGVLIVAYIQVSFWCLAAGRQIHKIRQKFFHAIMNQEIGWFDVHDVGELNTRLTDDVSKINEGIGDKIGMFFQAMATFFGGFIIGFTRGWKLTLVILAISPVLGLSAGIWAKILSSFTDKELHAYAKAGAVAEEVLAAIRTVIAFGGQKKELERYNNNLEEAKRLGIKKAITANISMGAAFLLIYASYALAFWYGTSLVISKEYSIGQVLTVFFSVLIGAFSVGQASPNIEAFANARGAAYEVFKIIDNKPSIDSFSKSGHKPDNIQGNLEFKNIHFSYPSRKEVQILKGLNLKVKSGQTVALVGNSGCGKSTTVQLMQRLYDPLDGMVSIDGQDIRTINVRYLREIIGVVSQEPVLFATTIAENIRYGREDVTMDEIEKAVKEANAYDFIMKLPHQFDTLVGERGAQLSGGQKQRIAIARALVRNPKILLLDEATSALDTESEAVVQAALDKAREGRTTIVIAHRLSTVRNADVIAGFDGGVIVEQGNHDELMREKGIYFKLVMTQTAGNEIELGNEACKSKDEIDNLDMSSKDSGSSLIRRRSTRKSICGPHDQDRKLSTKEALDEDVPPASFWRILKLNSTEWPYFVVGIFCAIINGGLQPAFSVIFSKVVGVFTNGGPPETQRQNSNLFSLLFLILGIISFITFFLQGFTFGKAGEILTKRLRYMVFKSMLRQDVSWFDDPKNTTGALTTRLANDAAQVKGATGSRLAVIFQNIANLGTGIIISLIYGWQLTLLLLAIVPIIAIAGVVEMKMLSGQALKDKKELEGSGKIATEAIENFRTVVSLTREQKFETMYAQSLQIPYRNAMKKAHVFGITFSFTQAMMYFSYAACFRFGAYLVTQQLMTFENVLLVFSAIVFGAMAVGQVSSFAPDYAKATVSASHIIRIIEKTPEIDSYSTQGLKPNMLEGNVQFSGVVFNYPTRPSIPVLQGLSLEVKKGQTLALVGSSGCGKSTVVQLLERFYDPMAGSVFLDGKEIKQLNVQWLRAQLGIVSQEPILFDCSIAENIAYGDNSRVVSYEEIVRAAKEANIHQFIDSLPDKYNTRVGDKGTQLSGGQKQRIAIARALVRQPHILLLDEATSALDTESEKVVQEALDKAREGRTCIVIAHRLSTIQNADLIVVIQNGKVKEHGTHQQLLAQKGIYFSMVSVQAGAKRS

SMILES: C[C@H]1O[C@@H](O[C@H]2[C@@H](O)C[C@H](O[C@H]3[C@@H](O)C[C@H](O[C@H]4CC[C@@]5(C)[C@H](CC[C@@H]6[C@@H]5C[C@@H](O)[C@]5(C)[C@@H](C7=CC(=O)OC7)CC[C@]65O)C4)O[C@@H]3C)O[C@@H]2C)C[C@H](O)[C@@H]1O [Digoxin]
- Drug-induced Ksv of Pgp (acrylamide quenching), AMPPNP (+) [1]: 1.51 ± 0.02 and 1.51 ± 0.02 M^−1
- Drug-induced Ksv of Pgp (acrylamide quenching), AMPPNP (-) [1]: 2.55 ± 0.06 and 2.55 ± 0.06 M^−1
- Pgp conformation upon drug binding in the absence of a nucleotide [1]: no effect
- Pgp conformation with drug in the presence of a nucleotide [1]: outward open
- Interaction (Region/Group) Pgp (STDD-NMR Data) ([2]; mouse, not told, 1 mM, pH 7.4): Protons on C3,C18, C19 of steroid; C22 of lactone; C3,C5,C6 of sugar
- Effect of erythromycin treatment on Pgp-mediated efflux rate (Pgp; in words): did not affect

SMILES: C[C@]12CC[C@H](O)C[C@H]1CC[C@@H]1[C@@H]2CC[C@]2(C)[C@@H](C3=CC(=O)OC3)CC[C@]12O [Digitoxigenin, (3β,5β)-3,14-Dihydroxy-card-20(22)-enolide]
- Drug-induced Ksv of Pgp (acrylamide quenching), AMPPNP (+) [1, 3]: 1.51 ± 0.02 M⁻¹
- Drug-induced Ksv of Pgp (acrylamide quenching), AMPPNP (+) ([1]; 250 µM drug, 3.2 mM AMPPNP, 21 °C, listed as digitoxigenin): 1.51 ± 0.02 M⁻¹ and 1.51 ± 0.01 M⁻¹
- Pgp conformation with drug in the presence of a nucleotide [1, 4]: outward open
- Drug-induced Ksv of Pgp (acrylamide quenching), AMPPNP (-) [1, 5]: 1.91 ± 0.04 M⁻¹
- Pgp conformation upon drug binding in the absence of a nucleotide [1, 6]: intermediate
- Interaction (Region/Group) Pgp (STDD-NMR Data) ([2]; 1 mM drug, 1 µM Pgp, 25 °C): Protons on C1, C12, C18, C19 of steroid; C22 of lactone

SMILES: C[C@]12CC[C@H](O)C[C@H]1CC[C@@H]1[C@@H]2C[C@@H](O)[C@]2(C)[C@@H](C3=CC(=O)OC3)CC[C@]12O [Digoxigenin, 3β,12β,14-Trihydroxy-5β,20(22)-cardenolide]
- Drug-induced Ksv of Pgp (acrylamide quenching), AMPPNP (+) [1, 3]: 1.70 ± 0.01 M⁻¹
- Pgp conformation with drug in the presence of a nucleotide [1, 4]: outward open
- Drug-induced Ksv of Pgp (acrylamide quenching), AMPPNP (-) [1, 5]: 2.26 ± 0.04 M⁻¹
- Pgp conformation upon drug binding in the absence of a nucleotide [1, 6]: intermediate
- Interaction (Region/Group) Pgp (STDD-NMR Data) ([2]; 1 mM drug, 1 µM Pgp, 25 °C): Protons on C1, C3,C12, C17, C18, C19 of steroid; C21, C22 of lactone
- Decrease of transport rate on treatment with erythromycin (Pgp): about 43%
